Test results from patent US8841301B2, “Selective NR2B antagonists” (Bristol-Myers Squibb Company, priority 2011, dated 2014).
pIC50: −log10 of the molar value. Like-named read-outs stand apart in the source and are kept apart here.

Biological target: hNR2B (Homo sapiens, UniProt Q05586+Q13224)
Experiment: Electrophysiology NMDA receptor experiments: two electrode voltage-clamp in Xenopus laevis oocytes expressing GluN1/GluN2 subunits
Assay type: cell-based
Conditions: oocytes voltage clamped at −40 mV, 50 μM glutamate, 30 μM glycine
Description: Electrophysiology NMDA Receptor Experiments.
Stage V and VI oocytes were surgically removed from the ovaries of large, well-fed and healthy Xenopus laevis anesthetized with 3-amino-benzoic acid ethyl ester (3 gm/l). Clusters of isolated oocytes were incubated with 292 U/ml Worthington (Freehold, N.J.) type IV collagenase or 1.3 mg/ml collagenase (Life Technologies, Gaithersburg, Md.; 17018-029) for 2 hr in Ca^2+-free solution comprised of (in mM) 115 NaCl, 2.5 KCl, and 10 HEPES, pH 7.5, with slow agitation to remove the follicular cell layer. Oocytes were then washed in the same solution supplemented with 1.8 mM CaCl2 and maintained in Barth's solution comprised of (in mM): 88 NaCl, 1 KCl, 2.4 NaHCO3, 10 HEPES, 0.82 MgSO4, 0.33 Ca(NO3)2, and 0.91 CaCl2 and supplemented with 100 μg/ml gentamycin, 10 μg/ml streptomycin, and 10 μg/ml penicillin. Oocytes were manually defolliculated and injected within 24 hrs of isolation with 3-5 ng of human GluN1 subunit cRNA and 7-10 ng of human GluN2 cRNA subunit in a 50 nl volume, and incubated in Barth's solution at 18° C. for 2-7 d. Glass injection pipettes had tip sizes ranging from 10-20 microns, and were backfilled with mineral oil. cRNA was synthesized from linearized template cDNA for rat glutamate receptor subunits according to manufacturer specifications (Ambion).
Two electrode voltage-clamp recordings were made 2-7 days post-injection. Oocytes were placed in a dual-track plexiglass recording chamber with a single perfusion line that splits in a Y-configuration to perfuse two oocytes. Dual recordings were made at room temperature (23° C.) using two Warner OC725B two-electrode voltage clamp amplifiers, arranged as recommended by the manufacturer. Glass microelectrodes (1-10 Megaohms) were filled with 300 mM KCl (voltage electrode) or 3 M KCl (current electrode). The bath clamps communicated across silver chloride wires placed into each side of the recording chamber, both of which were assumed to be at a reference potential of 0 mV. Oocytes were perfused with a solution comprised of (in mM) 90 NaCl, 1 KCl, 10 HEPES, […] and 0.5 BaCl2; pH 7.4, adjusted by addition of NaOH. Oocytes were recorded under voltage clamp at −40 mV. Final concentrations for glutamate and glycine were 50 μM and 30 μM, respectively. Concentration-response curves for experimental compounds were obtained by applying in successive fashion maximal glutamate/glycine, followed by glutamate/glycine plus variable concentrations of experimental compounds. Dose response curves consisting of four to eight concentrations were obtained in this manner. The baseline leak current at −40 mV was measured before and after recording, and the full recording linearly corrected for any change in leak current. The level of inhibition by applied experimental compounds was expressed as a percent of the initial glutamate response, and averaged together across oocytes from multiple experiments. Results were pooled, and the average percent responses at antagonist concentrations were fit by the equation, Percent Response=(100−minimum)/(1+([conc]/IC50)^nH)+minimum where minimum is the residual percent response in saturating concentration of the experimental compounds, IC50 is the concentration of antagonist that causes half of the achievable inhibition, and nH is a slope factor describing steepness of the inhibition curve. […]
For NMDA receptor subtype selectivity experiments human GluN1/GluN2A, GluN1/GluN2C, and GluN1/GluN2D cRNAs were expressed in Xenopus laevis as described above. Here, 10 μM concentrations of the antagonist was perfused with 50 μM glutamate and 30 μM glycine onto the oocyte for two min and the remaining current in the presence of the antagonist was compared to the maximal current obtained with 50 μM glutamate and 30 μM glycine alone (defined as 100%). When IC50 determinations were made against other NMDA receptor subtypes the protocol as described above was followed. […]

hNR2B, sequence (Q13224 27-1484, other chains not shown): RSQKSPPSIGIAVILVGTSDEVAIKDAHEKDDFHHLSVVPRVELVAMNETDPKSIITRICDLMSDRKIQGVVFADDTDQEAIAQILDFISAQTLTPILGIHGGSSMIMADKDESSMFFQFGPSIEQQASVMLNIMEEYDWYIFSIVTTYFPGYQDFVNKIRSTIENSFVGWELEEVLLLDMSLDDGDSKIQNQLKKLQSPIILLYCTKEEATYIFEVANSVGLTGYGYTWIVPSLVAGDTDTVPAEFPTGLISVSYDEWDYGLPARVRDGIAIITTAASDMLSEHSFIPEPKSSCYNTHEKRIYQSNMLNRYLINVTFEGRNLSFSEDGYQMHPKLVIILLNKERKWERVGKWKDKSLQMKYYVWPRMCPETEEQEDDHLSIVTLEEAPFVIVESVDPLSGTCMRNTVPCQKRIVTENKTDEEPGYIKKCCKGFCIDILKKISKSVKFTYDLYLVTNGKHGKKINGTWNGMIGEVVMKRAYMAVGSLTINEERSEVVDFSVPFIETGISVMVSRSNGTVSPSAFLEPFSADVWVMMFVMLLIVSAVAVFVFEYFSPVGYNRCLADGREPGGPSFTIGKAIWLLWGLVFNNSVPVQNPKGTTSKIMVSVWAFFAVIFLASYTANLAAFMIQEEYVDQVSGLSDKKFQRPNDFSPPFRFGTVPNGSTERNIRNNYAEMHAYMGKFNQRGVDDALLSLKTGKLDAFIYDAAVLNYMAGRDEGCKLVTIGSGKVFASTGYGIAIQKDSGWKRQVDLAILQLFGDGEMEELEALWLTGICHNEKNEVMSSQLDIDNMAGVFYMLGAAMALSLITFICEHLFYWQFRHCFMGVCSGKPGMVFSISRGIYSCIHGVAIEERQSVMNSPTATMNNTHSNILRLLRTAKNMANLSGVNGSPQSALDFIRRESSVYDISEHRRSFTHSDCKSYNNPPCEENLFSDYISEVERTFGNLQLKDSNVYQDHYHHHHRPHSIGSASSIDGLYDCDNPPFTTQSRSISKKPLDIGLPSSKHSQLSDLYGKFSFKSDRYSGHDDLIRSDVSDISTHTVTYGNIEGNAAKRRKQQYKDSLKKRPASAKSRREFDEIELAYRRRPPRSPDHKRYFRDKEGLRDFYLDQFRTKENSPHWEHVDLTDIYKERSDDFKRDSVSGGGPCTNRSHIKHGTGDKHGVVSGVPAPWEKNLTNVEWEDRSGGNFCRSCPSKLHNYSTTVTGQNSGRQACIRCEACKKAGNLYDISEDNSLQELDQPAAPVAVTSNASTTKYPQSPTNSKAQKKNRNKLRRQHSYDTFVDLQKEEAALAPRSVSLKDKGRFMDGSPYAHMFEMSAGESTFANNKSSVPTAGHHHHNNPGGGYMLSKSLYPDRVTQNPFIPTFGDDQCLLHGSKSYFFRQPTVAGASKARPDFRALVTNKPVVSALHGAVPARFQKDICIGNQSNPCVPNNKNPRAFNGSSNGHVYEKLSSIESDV

A pIC50 (read-out: Rating (hNR2B IC50)) of 6.00 to 6.70 was found for `CCc1ccc(Nc2ncc(CCc3ccc4[nH]ncc4c3)cn2)cc1` [Example 127] in this work.
A pIC50 (read-out: Rating (hNR2B IC50)) of over 6.70 was found for `Fc1cc(Nc2ncc(CCc3ccc4[nH]ncc4c3)cn2)ccc1OC(F)F` [Example 128] in this work.
A pIC50 (read-out: Rating (hNR2B IC50)) of over 6.70 was found for `O=c1ccc2cc(CCc3cnc(Nc4ccc(OC(F)F)c(F)c4)nc3)ccc2[nH]1` [Example 129] in this work.
A pIC50 (read-out: Rating (hNR2B IC50)) of over 6.70 was found for `CCc1ccc(Nc2ncc(CCc3ccc4[nH]c(=O)ccc4c3)cn2)cc1` [Example 131] in this work.
A pIC50 (read-out: Rating (hNR2B IC50)) of over 6.70 was found for `COc1ccc(Nc2ncc(CCc3ccc4[nH]c(=O)ccc4c3)cn2)cc1C` [Example 132] in this work.
A pIC50 (read-out: Rating (hNR2B IC50)) of 5.00 to 6.00 was found for `FC1(F)Oc2ccc(Nc3ncc(CCc4ccc5[nH]ncc5c4)cn3)cc2O1` [Example 133] in this work.
A pIC50 (read-out: Rating (hNR2B IC50)) of 5.00 to 6.00 was found for `CCc1ccc(Nc2ncc(CCc3ccc4[nH]ncc4c3)cn2)cc1Cl` [Example 134] in this work.
A pIC50 (read-out: Rating (hNR2B IC50)) of 5.00 to 6.00 was found for `CCc1ccc(Nc2ncc(CCc3ccc4[nH]c(=O)ccc4c3)cn2)cc1Cl` [Example 135] in this work.
A pIC50 (read-out: Rating (hNR2B IC50)) of under 5.00 was found for `CC1(C)OC(=O)Nc2ccc(CCc3cnc(Nc4ccc(OC(F)F)cc4)nc3)cc21` [Example 138] in this work.
A pIC50 (read-out: Rating (hNR2B IC50)) of over 6.70 was found for `O=C1Nc2ccc(CCc3cnc(Nc4ccc(OC(F)F)cc4)nc3)cc2CO1` [Example 139] in this work.
A pIC50 (read-out: Rating (hNR2B IC50)) of 6.00 to 6.70 was found for `CC1(C)OC(=O)Nc2ccc(CCc3cnc(Nc4ccc(OC(F)F)c(Cl)c4)nc3)cc21` [Example 140] in this work.
A pIC50 (read-out: Rating (hNR2B IC50)) of 5.00 to 6.00 was found for `CCc1ccc(Nc2ncc(CCc3ccc4c(c3)C(C)(C)OC(=O)N4)cn2)cc1F` [Example 141] in this work.
A pIC50 (read-out: Rating (hNR2B IC50)) of 5.00 to 6.00 was found for `Cc1ccc(Nc2ncc(CCc3ccc4c(c3)C(C)(C)OC(=O)N4)cn2)cc1F` [Example 142] in this work.
A pIC50 (read-out: Rating (hNR2B IC50)) of over 6.70 was found for `O=C1Nc2ccc(CCc3cnc(Nc4ccc(OC(F)F)c(Cl)c4)nc3)cc2CO1` [Example 143] in this work.
A pIC50 (read-out: Rating (hNR2B IC50)) of over 6.70 was found for `CCc1ccc(Nc2ncc(CCc3ccc4c(c3)COC(=O)N4)cn2)cc1F` [Example 144] in this work.
A pIC50 (read-out: Rating (hNR2B IC50)) of over 6.70 was found for `Cc1cc(Nc2ncc(CCc3ccc4c(c3)COC(=O)N4)cn2)ccc1OC(F)F` [Example 145] in this work.
A pIC50 (read-out: Rating (hNR2B IC50)) of over 6.70 was found for `O=C1Nc2ccc(CCc3cnc(Nc4ccc(OC(F)F)c(F)c4)nc3)cc2CO1` [Example 146] in this work.
A pIC50 (read-out: Rating (hNR2B IC50)) of 5.00 to 6.00 was found for `Cc1cc(Nc2ncc(CCc3ccc4c(c3)C(C)(C)OC(=O)N4)cn2)ccc1OC(F)F` [Example 147] in this work.
A pIC50 (read-out: Rating (hNR2B IC50)) of 5.00 to 6.00 was found for `CC1(C)OC(=O)Nc2ccc(CCc3cnc(Nc4ccc(OC(F)F)c(F)c4)nc3)cc21` [Example 148] in this work.
A pIC50 (read-out: Rating (hNR2B IC50)) of over 6.70 was found for `Cc1ccc(Nc2ncc(CCc3ccc4c(c3)COC(=O)N4)cn2)cc1F` [Example 149] in this work.
A pIC50 (read-out: Rating (hNR2B IC50)) of over 6.70 was found for `Oc1ccc(CCc2cnc(Nc3ccc(OC(F)F)cc3)nc2)cc1` [Example 150] in this work.
A pIC50 (read-out: Rating (hNR2B IC50)) of 6.00 to 6.70 was found for `CCc1ccc(Nc2ncc(CCc3cnc4[nH]ncc4c3)cn2)cc1F` [Example 151] in this work.
A pIC50 (read-out: Rating (hNR2B IC50)) of over 6.70 was found for `Fc1cc(Nc2ncc(CCc3cnc4[nH]ncc4c3)cn2)ccc1OC(F)F` [Example 152] in this work.
A pIC50 (read-out: Rating (hNR2B IC50)) of over 6.70 was found for `Cc1cc(Nc2ncc(CCc3cnc4[nH]ncc4c3)cn2)ccc1OC(F)F` [Example 153] in this work.
A pIC50 (read-out: Rating (hNR2B IC50)) of over 6.70 was found for `FC(F)Oc1ccc(Nc2ncc(CCc3cnc4[nH]ncc4c3)cn2)cc1` [Example 154] in this work.
A pIC50 (read-out: Rating (hNR2B IC50)) of over 6.70 was found for `O=c1ccc2cc(CCc3cnc(Nc4ccc(OC(F)F)cc4)nc3)cnc2[nH]1` [Example 155] in this work.
A pIC50 (read-out: hNR2B IC50) of 6.87 was found for `FC(F)Oc1ccc(Nc2ccc(CCc3ccc4[nH]ncc4c3)nn2)cc1` [Example 156, 6-(2-(1H-indazol-5-yl)ethyl)-N-(4-(difluoromethoxy)phenyl)pyridazin-3-amine] in this work.
